Measurements reported in ChEMBL document CHEMBL5052823, “Prc1 inhibitors and methods of treatment therewith” (2020).
Calls of active or inactive are those of the source. The rule behind the calls is not given here.

How the values were obtained:
T-cell line = assay: Induction on human TEX cells differentiation assessed as reduction in CD34 surface expression at 6 to 25 uM relative to control; assay type: functional, cell-based; settings: dose 6-25 µM
M9-ENL1 [1] = assay: Antitumour activity against human M9-ENL1 cells transplanted in mouse assessed as decrease in leukemia development; assay type: functional, cell-based
K562 [2] = assay: Inhibition of RING1B-BMI1 H2Aub activity in human K562 cells at 6.2 to 25 uM relative to control; assay type: cell-based; settings: dose 6.2-25 µM
M9-ENL1 [3] = assay: Inhibition of colony formation in human M9-ENL1; assay type: functional, cell-based
Homo sapiens [4] = species on record: Homo sapiens; assay: Inhibition of TRIM37 (unknown origin) activity at 12.2 to 50 uM relative to control; settings: dose 12.2-50 µM
K562 [5] = assay: Inhibition of PRC1 in human K562 cells; assay type: cell-based
Homo sapiens [6] = species on record: Homo sapiens; assay: Inhibition of BRCA1-BARD1 (unknown origin) activity at 12.2 to 50 uM relative to control; settings: dose 12.2-50 µM
Homo sapiens [7] = species on record: Homo sapiens; assay: Inhibition of RING1B-BMI1 (unknown origin) interaction with nucleosome at 0.8 to 12.5 uM measured by EMSA assay relative to control; settings: dose 0.8-12.5 µM
M9-ENL1 [8] = assay: Antitumour activity against human M9-ENL1 cells transplanted in mouse assessed as decrease in engraftment; assay type: functional, cell-based
T cell = assay: Inhibition of RING1B-BMI1 H2Aub activity in human TEX cells at 6 to 25 uM relative to control; assay type: cell-based; settings: dose 6-25 µM
Homo sapiens [9] = species on record: Homo sapiens; assay: Inhibition of RING1B-PCGF1 (unknown origin) activity at 0.4 to 25 uM relative to control; settings: dose 0.4-25 µM

Structure (SMILES)	Activity (T-cell line)	Activity (M9-ENL1 [1])	inhibition (K562 [2])	inhibition (M9-ENL1 [3])	inhibition (Homo sapiens [4])	inhibition (K562 [5])	inhibition (Homo sapiens [6])	inhibition (Homo sapiens [7])	Activity (M9-ENL1 [8])	inhibition (T cell)	inhibition (Homo sapiens [9])
CCc1c(-c2cccc3c2ccn3CCO)[nH]c(C(=O)O)c1-c1ccc(OC)cc1Cl	inactive										
CC(C)c1c(-c2cccc3[nH]ccc23)[nH]c(C(=O)O)c1-c1c(Cl)ccc2[nH]ccc12	Active	Active	Active	Active	inactive	Active	inactive	Active	Active	Active	Active
